Laboratory results: BindingDB's records for doi:10.1021/acs.jnatprod.4c00082 (Johannes Gutenberg-University, 2024)
pIC50: −log10 of the molar value.

Biological target: T1, Signal transducer and activator of transcription 6 (Homo sapiens, UniProt P42226)
T1 sequence (P42226 whole entry): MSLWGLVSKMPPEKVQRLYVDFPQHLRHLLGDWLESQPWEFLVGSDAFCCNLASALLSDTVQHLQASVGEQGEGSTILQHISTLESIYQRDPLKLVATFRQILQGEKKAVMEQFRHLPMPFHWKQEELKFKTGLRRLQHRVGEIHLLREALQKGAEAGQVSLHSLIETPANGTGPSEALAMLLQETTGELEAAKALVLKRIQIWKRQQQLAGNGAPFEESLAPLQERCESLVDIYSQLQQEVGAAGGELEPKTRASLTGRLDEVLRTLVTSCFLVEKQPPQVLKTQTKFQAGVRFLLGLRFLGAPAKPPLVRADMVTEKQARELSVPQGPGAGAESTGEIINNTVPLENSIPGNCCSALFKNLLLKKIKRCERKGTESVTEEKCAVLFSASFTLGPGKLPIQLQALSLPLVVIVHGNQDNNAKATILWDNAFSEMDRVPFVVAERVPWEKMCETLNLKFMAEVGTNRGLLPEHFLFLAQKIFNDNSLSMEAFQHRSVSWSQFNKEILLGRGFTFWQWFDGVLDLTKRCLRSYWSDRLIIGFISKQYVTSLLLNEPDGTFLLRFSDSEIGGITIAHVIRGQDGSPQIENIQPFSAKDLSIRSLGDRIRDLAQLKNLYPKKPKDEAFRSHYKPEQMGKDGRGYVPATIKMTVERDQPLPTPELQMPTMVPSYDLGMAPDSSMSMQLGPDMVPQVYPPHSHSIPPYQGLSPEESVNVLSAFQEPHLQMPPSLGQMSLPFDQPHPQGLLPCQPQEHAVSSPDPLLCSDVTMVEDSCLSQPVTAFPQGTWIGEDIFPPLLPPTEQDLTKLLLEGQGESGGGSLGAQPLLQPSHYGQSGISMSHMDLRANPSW
Test: Inhibition of IL-4 induced STAT6 signaling in human HepG2 cells harboring pRL-EF1alpha, pGL3-TK-7xN4 and TOPO-Stat6 plasmid assessed as luciferase activity incubated for 24 hrs

| Compound | pIC50 |
| --- | --- |
| C/C1=C\C[C@@H](O)[C@H](C)[C@H](C)OC(=O)Cc2c(Cl)c(O)cc(O)c2C1=O | 6.00 |
| C/C1=C\C[C@H](O)[C@H](C)[C@H](C)OC(=O)Cc2c(Cl)c(O)cc(O)c2C1=O | 6.70 |
| C/C1=C/C[C@@H](O)[C@H](C)[C@@H](C)OC(=O)Cc2c(Cl)c(O)cc(O)c2C1=O | 7.14 |

The next compounds have a higher pIC50 than those just listed; values first:

| pIC50 | Compound |
| --- | --- |
| 7.19 | C/C1=C/C[C@H](O)[C@H](C)[C@@H](C)OC(=O)Cc2c(Cl)c(O)cc(O)c2C1=O |
| 7.30 | C/C1=C\C[C@H](O)[C@H](C)[C@@H](C)OC(=O)Cc2c(Cl)c(O)cc(O)c2C1=O |
